Measured values published in patent US20250314638A1, “OBLIQUE LINE SCANNER SYSTEMS AND METHODS FOR HIGH THROUGHPUT SINGLE MOLECULE TRACKING IN LIVING CELLS” (EIKON THERAPEUTICS, INC., priority 2022, published 2025).

Tested on: Halo-PCNA U2OS cells
Test: Cell cycle block validated by machine-learning cell cycle phase assignment in Halo-PCNA cells
Format: cell-based
Details: 2 mM Thymidine (S-phase block) or (G2-M block)
Procedure: Time-lapse microscopy was conducted on Halo-PCNA labeled with 50 nM JFX650, to achieve near-saturating labeling, for 12 hours at 12 frames per hour (FIG. 21A). A machine learning model was then trained using both manually assigned cell stages and time-based progression resulting in both a G1, early S, mid S, late S, G2 and mitosis classifier as well as a regression prediction across the continuum of the cell cycle (FIG. 21B). The predicted cell cycle classification performed well as compared to manual annotation (FIG. 21C). Clear progression of individual cells through the cell cycle was observed when regression prediction was plotted across the time series (FIG. 21D). […] When cells in each cell phase were analyzed separately, it became apparent that the slow-moving population of PCNA was exclusively found in cell predicted to be in S-phase and that there was a marked decrease in the fast-moving population (FIG. 20E). Mean diffusion coefficient of PCNA was then measured for 4,081 individual cells to characterize heterogeneity across the cell population, which is described in large part by cell cycle (FIG. 20F).
Cell cycle as provided above can be automatically determined using an image (e.g., an image of JF549-labeled PCNA). […]

SMILES	fraction of cells assigned to cell cycle phases
O=C1NC(=NCc2cccs2)S/C1=C\c1ccc2ncccc2c1 [RO-3306]	expected enrichment in the fraction of cells assigned to the respective cell phases
Cc1cn([C@H]2C[C@H](O)[C@@H](CO)O2)c(=O)[nH]c1=O [thymidine]	expected enrichment in the fraction of cells assigned to the respective cell phases
